Assay results: PubChem BioAssay (NCI)
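All cell lines were grown in 96-well plates and treated with compound for 48 hours. GI50 marks 50% less growth. TGI marks complete inhibition of growth.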

tested on: M14 melanoma; assay: DTP human tumour cell line panel, 48 h

| Structure (SMILES) | GI50 [µM] | TGI [µM] |
| --- | --- | --- |
| CNCCOC(=O)/C=C1\CC[C@H]2[C@@H]([C@@H](O)C(=O)[C@@H]3[C@]2(C)CC[C@H](O)[C@]3(C)C(=O)OC)[C@H]1C | 1.08 | 2.46 |

tested on: NCI-H226 lung; assay: DTP human tumour cell line panel, 48 h

| Structure (SMILES) | GI50 [µM] | TGI [µM] |
| --- | --- | --- |
| CN1CCN(c2ccc(Nc3cc(-c4cccc(-n5ccc6cc(C7CC7)cc(F)c6c5=O)c4CO)cn(C)c3=O)nc2)CC1 | 10.2 | 30.1 |
| COc1ccc2nc3ccccc3c(NCc3ccc(F)cc3)c2c1 | 1.81 | 9.28 |
| CN(C)C1CCN(C(=O)c2ccc(NC(=O)Nc3ccc(-c4nc(N5CCOCC5)c5cccn5n4)cc3)cc2)CC1 | 0.0435 | 2.99 |
| COc1ccc(OCC(=O)O)c2c1CCCC2=O |  | > 100 |
| COc1cc(N=Nc2ccc(O)c3ncccc23)c2ncccc2c1 | 6.07 | > 100 |
| Cc1nc(Nc2ccc(Cl)cc2)sc1C(=O)NNC(=S)NN |  | 38 |
| CCn1c(O)c(/C=N/NC(=O)C(C)c2ccc(CC(C)C)cc2)sc1=S (stereo unspecified) | 0.797 | > 21.4 |
| C[C@@H]1C[C@@H]([C@@H](CC2CC(=O)NC(=O)C2)OC(=O)CC(=O)c2ccccc2)C(=O)[C@@H](C)C1 | 0.686 | > 100 |
| N=c1c2c(-c3ccccc3)c(-c3ccccc3)n(Cc3ccccc3)c2ncn1C1CCC(O)CC1 (stereo unspecified) | 0.517 | 16.8 |
| O=c1c(F)cn(Cc2ccc(C34CC5CC(CC(C5)C3)C4)c(O)c2)c(=O)n1Cc1ccc(C23CC4CC(CC(C4)C2)C3)c(O)c1 | 12.9 | 26.1 |
| CCOC(=O)Nc1cc2c(c(N)n1)N=C(c1ccccc1)CO2 | 4.16 | 41.4 |
| CC1CC2CCCC(O)=C2C(=O)O1 (stereo unspecified) |  | > 100 |
| CC(C)(/C=C(\C#N)C(=O)N1CCC[C@@H](n2nc(-c3ccc(Oc4ccccc4)cc3F)c3c(N)ncnc32)C1)N1CCN(C2COC2)CC1 | 4.3 | 21.1 |
| Cc1ccc(C)c(NC(=O)c2cccc([N+](=O)[O-])c2O)c1 |  | 68.8 |
| O=c1oc2ccc(-c3ccc(F)cc3F)cc2c(=O)n1-c1cccc(C(F)(F)F)c1 | 1.43 | 5.19 |
| COC(=O)c1ccc2c(c1)C(=O)c1c-2n(CCCN=[N+]=[N-])c(=O)c2cc(OC)c(OC)cc12 | > 100 | > 100 |
| O=C(Cc1ccc(F)c(Cl)c1)Nc1cc(C2(C(F)(F)F)CC2)nn1CC1CCCCC1 | 4.32 | > 15 |
| N#Cc1nn(-c2cc(=O)[nH]c3ccc(Cl)cc23)c(N)c1C#N | > 100 | > 100 |
| On1c(-c2ccccc2)c(-c2ccccc2N2CCCC2)c2ccccc21 |  | > 100 |
| CCN1CCN(c2cc(C)c3cc(NC(=O)c4ccc(OC)c(OC)c4)ccc3n2)CC1 | > 54.7 | > 100 |
| CC(C)(C)c1cc(C(P(=O)(O)O)P(=O)(O)O)cc(C(C)(C)C)c1O |  | > 100 |
| COC(=O)c1c2c(c(C)[n+]([O-])c1C)C(=O)C=C(NCc1ccc(F)cc1)C2=O | 1.77 | 4.13 |
| CC(C)C1=Cc2ccc3c(c2C(=O)C1=O)CCCC3(C)C |  | 35.9 |
| CSc1nc(SC)c2c(C#N)[nH]nc2n1 |  | > 100 |
| CCCC(=O)Nc1cn(COC)c(C(=O)N2C[C@@H]3C[C@]34C2=CC(=O)c2[nH]cc(C)c24)n1 |  | 34.1 |
| CC(=O)Nc1ccc(-c2csc(Nc3cccc(-c4csc(C)n4)c3)n2)cc1 | 4.92 | 16.8 |
| CNCCOC(=O)/C=C1\CC[C@H]2[C@@H]([C@@H](O)C(=O)[C@@H]3[C@]2(C)CC[C@H](O)[C@]3(C)C(=O)OC)[C@H]1C | 0.566 | 1.99 |

tested on: NCI-H23 lung; assay: DTP human tumour cell line panel, 48 h

| Structure (SMILES) | GI50 [µM] | TGI [µM] |
| --- | --- | --- |
| CN1CCN(c2ccc(Nc3cc(-c4cccc(-n5ccc6cc(C7CC7)cc(F)c6c5=O)c4CO)cn(C)c3=O)nc2)CC1 | 13.6 | 37.3 |
| COc1ccc2nc3ccccc3c(NCc3ccc(F)cc3)c2c1 | 1.89 | 8.46 |
| CN(C)C1CCN(C(=O)c2ccc(NC(=O)Nc3ccc(-c4nc(N5CCOCC5)c5cccn5n4)cc3)cc2)CC1 | 0.102 | 17.7 |
| COc1ccc(OCC(=O)O)c2c1CCCC2=O |  | > 100 |
| COc1cc(N=Nc2ccc(O)c3ncccc23)c2ncccc2c1 | 3.75 | > 100 |
